Reference: publication PMC12635975, “Peptide-Based Fluorescent Biosensing System for the Detection of the Melanoma Biomarker S100B” (Bioconjugate Chemistry, 2025)
One block for each molecule: values may come before it.

Tests used:
other S100 proteins = conditions: unlike other peptides; ref literature (citation numbers not shown in text); cited from earlier work
From the text: (§1) It interacts with S100B through a combination of hydrophobic and electrostatic interactions, stabilizing the protein structure and enhancing calcium-ion-binding affinity. […] By integrating TRTK12 into advanced optical biosensing systems, ...

S100B = biological target: T1, S100B (Homo sapiens, UniProt P04271); conditions: ref literature (citation numbers not shown in text); read-out: binding affinity K d; cited from earlier work
T1 construct: purchased Abbexa abx060130
T1 sequence (P04271 1-92): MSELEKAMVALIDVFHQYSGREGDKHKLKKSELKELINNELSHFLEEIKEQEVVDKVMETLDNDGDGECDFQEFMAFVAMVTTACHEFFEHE
From the text: as §1

[1] = biological target: fluorescently labeled peptide-nucleic acid (PNA) beacon with the peptide TRTK12 as the biorecognition element; assay: other fluorescence titration; beacon fixed at 500 nM, S100B 0-100 nM; donor (5-FAM) emission of the FAM/Dabcyl FRET beacon, excitation 499 nm; 50 mM Tris-HCl pH 7.0, 240 mM NaCl, 20 mM CaCl2; 35 °C; 60 min incubation; two-site binding model fitted to the calibration curve

Molecule: TRTKIDWNKILS [TRTK12]
cross-reactivity (other S100 proteins): minimal cross-reactivity with other S100 proteins
Kd (S100B): ~260 nM

half-saturation constant of the high-affinity site (two-site binding model) [1]: 0.145 nM
half-saturation constant of the lower-affinity site (two-site binding model) [1]: 364 nM
B1: S100B protein (natural protein)
chain: T1 sequence (P04271 1-92)
